Laboratory results: patent publication US8586579B2, “Anellated pyridine compounds” (Hoffmann-La Roche Inc., priority 2010, dated 2013)
Where two headings read alike, the source gives them in different places.

What was measured:
human D3 receptor = human D3 receptor (Homo sapiens (Human), UniProt P35462); assay: Radioligand binding assay, [3H]-spiperone, human D3 receptor; settings: membranes of HEK293 EBNA cells expressing human D3; 0.5 nM [3H]-spiperone
Protocol: (§1) HEK293 EBNA cells were transiently transfected with expression plasmids encoding for the human D2 or D3 or for the human 5-HT2A receptor, respectively. The cells were harvested 48 h post-transfection, washed three times with cold PBS and stored at −80° C. prior to use. The pellet was suspended in cold 50 mM Tris-HCl buffer comprising 10 mM EDTA (pH 7.4) and was homogenized with a Polytron (Kinematica AG, Basel, Switzerland) for 20-30 sec at 12.000 rpm. After centrifugation at 48.000×g for 30 min at 4° C., the pellet was resuspended in cold 10 mM Tris-HCl buffer comprising 0.1 mM EDTA (pH 7.4), homogenized, and centrifuged as above. This pellet was further resuspended in a smaller volume of ice cold 10 mM Tris-HCl buffer comprising 0.1 mM EDTA (pH 7.4) and homogenized with a Polytron for 20-30 sec at 12.000 rpm. The protein content of this homogenate was determined with the Bio-Rad (Bradford) Protein Assay (Biorad Laboratories GmbH, München, Germany) according to the instructions of the manufacturer using gamma globulin as the standard. This homogenate was stored at −80° C. in aliquots and thawed immediately prior to use.
(§2) Aliquots of membrane preparations were thawed at RT, resuspended in assay buffer (D2, D3: 50 mM Tris-HCl, 120 mM NaCl, 5 mM MgCl2, 1 mM EDTA, 5 mM KCl, 1.5 mM CaCl2, pH=7.4; 5-HT2A: 50 mM Tris-HCl, 10 mM MgCl2, 1 mM EGTA, pH=7.4), homogenized with a Polytron for 20-30 sec at 12.000 rpm and adjusted to a final concentration of approximately 7.5 μg protein/well (D2, D3) and 15 μg protein/well (5-HT2A), respectively.
(§3) The binding affinity (Ki) of the compounds was determined using radioligand binding. Membranes were incubated in a total volume of 200 μl with a fixed concentration of radioligand (final concentration approximately 0.7 nM [^3H]-spiperone for D2, 0.5 nM [^3H]-spiperone for D3, and 1.1 nM [^3H]-ketanserin for 5-HT2A) and ten concentrations of test compound in ranging between 10 μM-0.1 nM for 1 h at RT. […] The nonspecific binding was determined with equally composed reaction mixtures in the presence of 10 μM unlabelled spiperone. Per well 45 μl of Microscint 40 (Perkin Elmer, Schwerzenbach, Switzerland) was added, plates for sealed, shaken for 20 min and counted for 3 min on a Topcount Microplate Scintillation Counter (Can berra Packard SA, Zürich, Switzerland) with quenching correction.
(§4) The CPM value for each duplicate of a concentration of competing compound was averaged (y1), then the % specific binding was calculated according to the equation (((y1−non-specific)/(total binding−non-specific))×100). Graphs were plotted with the % specific binding using XLfit, a curve fitting program that iteratively plots the data using Levenberg-Marquardt algorithm. The single site competition analysis equation used was y=A+((B−A)/(1+((x/C)D))), where y is the % specific binding, A is the minimum y, B is the maximum y, C is the IC50, x is the log 10 of the concentration of the competing compound and D is the slope of the curve (the Hill Coefficient). […] The affinity constant (K) was calculated using the Cheng-Prusoff equation Ki=(IC50/1+([L]/Kd), where [L] is the concentration of radioligand and Kd is the dissociation constant of the radioligand at the receptor as determined by the saturation isotherm.

human 5-HT2A receptor = human 5-HT2A receptor (Homo sapiens (Human), UniProt P28223); assay: Radioligand binding assay, [3H]-ketanserin, human 5-HT2A receptor
Protocol: as §1, §2, §3, §4

human D2 receptor = human D2 receptor (Homo sapiens (Human), UniProt P14416); assay: Radioligand binding assay, [3H]-spiperone, human D2 receptor; settings: membranes of HEK293 EBNA cells expressing human D2; 0.7 nM [3H]-spiperone
Protocol: as §1, §2, §3
as §4, with “algorithm.” for “algorithm. The single site competition analysis equation used was y=A+((B−A)/(1+((x/C)D))), where y is the % specific binding, A is the minimum y, B is the maximum y, C is the IC50, x is the log 10 of the concentration of the competing compound and D is the slope of the curve (the Hill Coefficient).”

[1] = membranes of HEK293 EBNA cells expressing human 5-HT2A, 1.1 nM [3H]-ketanserin

Chain of human 5-HT2A receptor (P28223 whole entry): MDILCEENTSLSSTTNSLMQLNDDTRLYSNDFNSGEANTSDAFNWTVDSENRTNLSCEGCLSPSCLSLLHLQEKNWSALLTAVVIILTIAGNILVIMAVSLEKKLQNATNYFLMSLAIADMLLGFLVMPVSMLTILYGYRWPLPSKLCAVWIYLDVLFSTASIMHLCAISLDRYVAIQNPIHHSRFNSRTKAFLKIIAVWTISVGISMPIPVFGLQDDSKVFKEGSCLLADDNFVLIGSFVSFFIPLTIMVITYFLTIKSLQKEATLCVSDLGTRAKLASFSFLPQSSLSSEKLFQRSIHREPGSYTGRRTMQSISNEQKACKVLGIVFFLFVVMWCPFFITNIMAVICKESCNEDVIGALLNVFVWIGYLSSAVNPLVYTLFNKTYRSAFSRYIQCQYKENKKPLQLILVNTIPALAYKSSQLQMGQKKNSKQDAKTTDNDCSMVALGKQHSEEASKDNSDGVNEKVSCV
Chain of human D3 receptor (P35462 whole entry): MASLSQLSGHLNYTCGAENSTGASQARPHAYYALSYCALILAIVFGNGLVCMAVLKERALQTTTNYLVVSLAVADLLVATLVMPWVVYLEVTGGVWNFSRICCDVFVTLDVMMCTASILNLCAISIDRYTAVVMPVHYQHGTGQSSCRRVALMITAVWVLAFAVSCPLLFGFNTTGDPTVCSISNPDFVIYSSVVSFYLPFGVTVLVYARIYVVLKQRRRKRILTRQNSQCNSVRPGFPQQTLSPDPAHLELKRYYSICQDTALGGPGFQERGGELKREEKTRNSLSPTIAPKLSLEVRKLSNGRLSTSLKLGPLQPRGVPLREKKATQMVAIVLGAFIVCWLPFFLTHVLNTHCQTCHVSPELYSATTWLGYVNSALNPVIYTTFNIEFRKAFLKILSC
Chain of human D2 receptor (P14416 whole entry): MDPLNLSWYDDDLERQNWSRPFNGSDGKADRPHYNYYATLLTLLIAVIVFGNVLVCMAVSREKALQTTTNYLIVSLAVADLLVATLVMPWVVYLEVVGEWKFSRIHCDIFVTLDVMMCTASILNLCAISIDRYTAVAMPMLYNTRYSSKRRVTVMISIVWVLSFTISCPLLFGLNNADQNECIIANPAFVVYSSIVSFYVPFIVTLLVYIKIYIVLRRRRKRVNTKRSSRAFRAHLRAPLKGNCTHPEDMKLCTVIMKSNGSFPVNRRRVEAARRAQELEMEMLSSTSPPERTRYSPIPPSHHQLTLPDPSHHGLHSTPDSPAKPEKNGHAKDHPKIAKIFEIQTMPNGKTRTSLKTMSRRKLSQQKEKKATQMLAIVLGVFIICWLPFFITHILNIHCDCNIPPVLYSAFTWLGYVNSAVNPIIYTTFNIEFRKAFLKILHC

SMILES | Ki (human D3 receptor) [nM] | Ki (human 5-HT2A receptor; [1]) [nM] | Ki (human D2 receptor) [nM] | Ki (human 5-HT2A receptor) [nM]
CO[C@@H]1CC[C@@H](CC(=O)N[C@H]2CC[C@H](CCN3CCN(c4nccc5occc45)CC3)CC2)C1 (racemic) [Example 2, N-{trans-4-[2-(4-Furo[3,2-c]pyridin-4-yl-piperazin-1-yl)-ethyl]-cyclohexyl}-2-(trans-3-methoxy-cyclopentyl)-acetamide] | 28.8 | 6.4 | 802 | 
CO[C@@H]1CC[C@@H](CC(=O)N[C@H]2CC[C@H](CCN3CCN(c4nccc5sccc45)CC3)CC2)C1 (racemic) [Example 21, 2-(trans-3-Methoxy-cyclopentyl)-N-{trans-4-[2-(4-thieno[3,2-c]pyridin-4-yl-piperazin-1-yl)-ethyl]-cyclohexyl}-acetamide] | 3.6 | 3.7 | 271 | 
CC(=O)N[C@H]1CC[C@H](CCN2CCN(c3nccc4occc34)CC2)CC1 [Example 1, N-{trans-4-[2-(4-Furo[3,2-c]pyridin-4-yl-piperazin-1-yl)-ethyl]-cyclohexyl}-acetamide] | 18.3 |  | 486 | 9.1
O=C(C[C@H]1CC[C@H](O)CC1)N[C@H]1CC[C@H](CCN2CCN(c3nccc4occc34)CC2)CC1 [Example 3, N-{trans-4-[2-(4-Furo[3,2-c]pyridin-4-yl-piperazin-1-yl)-ethyl]-cyclohexyl}-2-(trans-4-hydroxy-cyclohexyl)-acetamide] | 54.6 |  | 1540 | 8.8
CCC(=O)N[C@H]1CC[C@H](CCN2CCN(c3nccc4occc34)CC2)CC1 [Example 4, N-{trans-4-[2-(4-Furo[3,2-c]pyridin-4-yl-piperazin-1-yl)-ethyl]-cyclohexyl}-propionamide] | 11.8 |  | 780 | 6.5
COCCC(=O)N[C@H]1CC[C@H](CCN2CCN(c3nccc4occc34)CC2)CC1 [Example 5, N-{trans-4-[2-(4-Furo[3,2-c]pyridin-4-yl-piperazin-1-yl)-ethyl]-cyclohexyl}-3-methoxy-propionamide] | 24 | 8.1 | 1350 | 
O=C(CCO)N[C@H]1CC[C@H](CCN2CCN(c3nccc4occc34)CC2)CC1 [Example 6, N-{trans-4-[2-(4-Furo[3,2-c]pyridin-4-yl-piperazin-1-yl)-ethyl]-cyclohexyl}-3-hydroxy-propionamide] | 19.9 | 10.3 | 959 | 
O=C(CO)N[C@H]1CC[C@H](CCN2CCN(c3nccc4occc34)CC2)CC1 [Example 7, N-{trans-4-[2-(4-Furo[3,2-c]pyridin-4-yl-piperazin-1-yl)-ethyl]-cyclohexyl}-2-hydroxy-acetamide] | 43 | 5.6 | 1360 | 
COCC(=O)N[C@H]1CC[C@H](CCN2CCN(c3nccc4occc34)CC2)CC1 [Example 8, N-{trans-4-[2-(4-Furo[3,2-c]pyridin-4-yl-piperazin-1-yl)-ethyl]-cyclohexyl}-2-methoxy-acetamide] | 77.2 | 4.4 | 1160 | 
CO[C@H]1CC[C@H](CC(=O)N[C@H]2CC[C@H](CCN3CCN(c4nccc5occc45)CC3)CC2)CC1 [Example 9, N-{trans-4-[2-(4-Furo[3,2-c]pyridin-4-yl-piperazin-1-yl)-ethyl]-cyclohexyl}-2-(trans-4-methoxy-cyclohexyl)-acetamide] | 32.7 | 5.6 | 1460 | 
O=C(CC1CCOCC1)N[C@H]1CC[C@H](CCN2CCN(c3nccc4occc34)CC2)CC1 [Example 10, N-{trans-4-[2-(4-Furo[3,2-c]pyridin-4-yl-piperazin-1-yl)-ethyl]-cyclohexyl}-2-(tetrahydro-pyran-4-yl)-acetamide] | 30.3 | 6.1 | 683 | 
O=C(N[C@H]1CC[C@H](CCN2CCN(c3nccc4occc34)CC2)CC1)C1CCOCC1 [Example 11, Tetrahydro-pyran-4-carboxylic acid {trans-4-[2-(4-furo[3,2-c]pyridin-4-yl-piperazin-1-yl)-ethyl]-cyclohexyl}-amide] | 55.7 | 2.9 | 515 | 
CCOCC(=O)N[C@H]1CC[C@H](CCN2CCN(c3nccc4occc34)CC2)CC1 [Example 12, 2-Ethoxy-N-{trans-4-[2-(4-furo[3,2-c]pyridin-4-yl-piperazin-1-yl)-ethyl]-cyclohexyl}-acetamide] | 150 | 7.4 | 996 | 
O=C(N[C@H]1CC[C@H](CCN2CCN(c3nccc4occc34)CC2)CC1)C1CC1 [Example 13, Cyclopropanecarboxylic acid {trans-4-[2-(4-furo[3,2-c]pyridin-4-yl-piperazin-1-yl)-ethyl]-cyclohexyl}-amide] | 21.8 | 4.4 | 261 | 
CS(=O)(=O)N[C@H]1CC[C@H](CCN2CCN(c3nccc4occc34)CC2)CC1 [Example 14, N-{trans-4-[2-(4-Furo[3,2-c]pyridin-4-yl-piperazin-1-yl)-ethyl}-cyclohexyl]-methanesulfonamide] | 34.1 | 6.8 | 866 | 
CC(=O)N[C@H]1CC[C@H](CCN2CCN(c3nccc4sccc34)CC2)CC1 [Example 15, N-{trans-4-[2-(4-Thieno[3,2-c]pyridin-4-yl-piperazin-1-yl)-ethyl]-cyclohexyl}-acetamide] | 1.9 |  | 119 | 3.3
CCS(=O)(=O)N[C@H]1CC[C@H](CCN2CCN(c3nccc4occc34)CC2)CC1 [Example 16, Ethanesulfonic acid {trans-4-[2-(4-furo[3,2-c]pyridin-4-yl-piperazin-1-yl)-ethyl]-cyclohexyl}-amide] | 30.6 | 8.5 | 780 | 
CN(C)S(=O)(=O)N[C@H]1CC[C@H](CCN2CCN(c3nccc4occc34)CC2)CC1 [Example 17, N′-(trans-4{[4-(furo[3,2-c]pyridin-4-yl)-piperazin-1-yl]-ethyl}cyclohexyl)-N,N-dimethylsulfamide] | 33 | 5.3 | 539 | 
CCC(=O)N[C@H]1CC[C@H](CCN2CCN(c3nccc4sccc34)CC2)CC1 [Example 18, N-{trans-4-[2-(4-Thieno[3,2-c]pyridin-4-yl-piperazin-1-yl)-ethyl]-cyclohexyl}-propionamide] | 1.6 | 2.6 | 163 | 
COCCC(=O)N[C@H]1CC[C@H](CCN2CCN(c3nccc4sccc34)CC2)CC1 [Example 19, 3-Methoxy-N-{trans-4-[2-(4-thieno[3,2-c]pyridin-4-yl-piperazin-1-yl)-ethyl]-cyclohexyl}-propionamide] | 1.9 |  | 305 | 3.5
CO[C@H]1CC[C@H](CC(=O)N[C@H]2CC[C@H](CCN3CCN(c4nccc5sccc45)CC3)CC2)CC1 [Example 20, 2-(trans-4-Methoxy-cyclohexyl)-N-{trans-4-[2-(4-thieno[3,2-c]pyridin-4-yl-piperazin-1-yl)-ethyl]-cyclohexyl}-acetamide] | 3 | 2.5 | 302 | 
